Measured values as given in article PMC7215089, “Identification of a Conserved Prophenoloxidase Activation Pathway in Cotton Bollworm Helicoverpa armigera” (Frontiers in Immunology, 2020).

Target: T1, PPO / PO (PPO1-PPO2 heterodimer) (Helicoverpa armigera, UniProt A0A290U614+Q2VIY6)
T1 sequence (A0A290U614 1-684): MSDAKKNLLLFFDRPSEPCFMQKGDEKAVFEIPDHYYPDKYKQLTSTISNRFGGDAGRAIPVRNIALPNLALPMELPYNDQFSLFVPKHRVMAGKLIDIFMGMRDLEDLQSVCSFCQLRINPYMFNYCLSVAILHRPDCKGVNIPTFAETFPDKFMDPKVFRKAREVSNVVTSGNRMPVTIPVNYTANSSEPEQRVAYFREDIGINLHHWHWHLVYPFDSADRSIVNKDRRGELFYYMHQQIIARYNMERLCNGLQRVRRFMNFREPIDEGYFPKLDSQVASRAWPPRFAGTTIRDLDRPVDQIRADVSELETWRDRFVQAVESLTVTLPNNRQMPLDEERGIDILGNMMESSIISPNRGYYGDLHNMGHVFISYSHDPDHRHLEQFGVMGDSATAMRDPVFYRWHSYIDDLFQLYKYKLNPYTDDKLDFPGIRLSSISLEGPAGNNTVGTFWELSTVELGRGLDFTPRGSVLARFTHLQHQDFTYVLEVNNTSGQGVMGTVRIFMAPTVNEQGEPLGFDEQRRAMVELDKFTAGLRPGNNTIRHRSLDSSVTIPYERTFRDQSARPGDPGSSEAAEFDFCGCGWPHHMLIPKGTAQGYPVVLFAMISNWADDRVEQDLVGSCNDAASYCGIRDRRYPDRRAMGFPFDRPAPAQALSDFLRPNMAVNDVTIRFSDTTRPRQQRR
T1 sequence (Q2VIY6 1-698): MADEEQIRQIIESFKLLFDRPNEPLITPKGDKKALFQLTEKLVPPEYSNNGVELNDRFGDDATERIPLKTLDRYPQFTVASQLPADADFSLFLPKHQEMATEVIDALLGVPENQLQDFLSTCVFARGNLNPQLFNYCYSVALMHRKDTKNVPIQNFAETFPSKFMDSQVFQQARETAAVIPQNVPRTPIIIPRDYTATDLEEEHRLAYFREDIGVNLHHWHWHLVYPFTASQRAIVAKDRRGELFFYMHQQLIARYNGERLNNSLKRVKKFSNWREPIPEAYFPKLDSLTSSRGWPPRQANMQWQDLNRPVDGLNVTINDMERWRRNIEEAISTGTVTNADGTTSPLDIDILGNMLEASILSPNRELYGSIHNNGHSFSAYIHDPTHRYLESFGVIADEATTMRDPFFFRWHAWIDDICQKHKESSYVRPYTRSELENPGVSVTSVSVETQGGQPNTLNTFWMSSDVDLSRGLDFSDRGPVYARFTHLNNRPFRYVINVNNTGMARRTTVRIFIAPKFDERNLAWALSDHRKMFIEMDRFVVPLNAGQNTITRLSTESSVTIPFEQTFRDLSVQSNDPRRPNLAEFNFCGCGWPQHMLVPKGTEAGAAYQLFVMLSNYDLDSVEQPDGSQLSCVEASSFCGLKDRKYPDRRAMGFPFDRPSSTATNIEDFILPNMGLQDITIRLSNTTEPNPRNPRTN
Experiment: phenoloxidase assay, dopamine chrome formation
Assay type: biochemical
Conditions: PPO activated by CPC

NCCc1ccc(O)c(O)c1 [dopamine]
phenoloxidase assay, dopamine chrome formation: production of dopamine chrome (or dopachrome) from dopamine (or dopa)
